According to US20100035866A1, “NOVEL SUBSTITUTED-1, 1-DIOXO-BENZO[1,2,4]THIADIAZIN-3ONES, PREPARATION METHOD THEREOF, AND PHARMACEUTICAL COMPOSITION CONTAINING THE SAME” (KOREA RESEARCH INSTITUTE OF CHEMICAL TECHNOLOGY, priority 2006, published 2010):

Key:
hD2L receptor = target: T1, hD2L receptor (Homo sapiens, UniProt P14416); experiment: Dopamine receptor family binding: D2 ([3H]spiperone); settings: [3H]spiperone 1 nM; read-out: Binding affinity, IC50 (nM), D2
T1 construct: purchased BioSignal Packard Inc., Montreal, Canada
T1 sequence (P14416 whole entry): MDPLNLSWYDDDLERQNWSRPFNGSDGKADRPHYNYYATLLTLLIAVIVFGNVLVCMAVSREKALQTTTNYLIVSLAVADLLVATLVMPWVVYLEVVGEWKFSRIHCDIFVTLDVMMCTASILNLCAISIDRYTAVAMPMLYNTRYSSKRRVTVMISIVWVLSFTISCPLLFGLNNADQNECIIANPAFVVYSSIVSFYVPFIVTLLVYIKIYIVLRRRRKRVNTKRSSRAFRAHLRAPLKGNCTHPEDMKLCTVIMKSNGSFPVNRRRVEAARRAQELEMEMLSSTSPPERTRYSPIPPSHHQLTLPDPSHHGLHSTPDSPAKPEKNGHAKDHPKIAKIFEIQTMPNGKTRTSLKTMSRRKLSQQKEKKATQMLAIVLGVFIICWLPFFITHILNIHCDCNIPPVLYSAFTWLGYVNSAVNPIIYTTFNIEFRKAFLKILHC
Experimental: (§1) 2-2: Binding Assays of Dopamine Receptor Family
(§2) The radioligands used were [^3H]spiperone (for hD2L and hD3 receptors, 1 nM) and [^3H] YM-09151-2 (for hD4.2 receptor, 0.06 nM). Radioligand bindings were performed by the protocols provided by the supplier of receptor membranes (BioSignal Packard Inc., Montreal, Canada). Briefly, the buffer used in D2 or D3 receptor binding assay was 50 mM Tris-HCl (pH 7.4), 10 mM MgCl2, 1 mM EDTA, or 50 mM Tris-HCl (pH 7.4), 5 mM MgCl2 5 mM EDTA, 5 mM KCl, 1.5 mM CaCl2, 120 mM NaCl, respectively. In [^3H] YM-09151-2 receptor binding assays, the buffer containing 50 mM Tris-HCl (pH 7.4), 5 mM MgCl2, 5 mM EDTA, 5 mM KCl and 1.5 mM CaCl2 was used. […] Competition binding studies were carried out with 7-8 concentrations of the test compound run in duplicate tubes, and isotherms from three assays were calculated by computerized nonlinear regression analysis (GraphPad Prism Program, San Diego, […]) to yield median inhibitory concentration (IC50) values.

[1] = target: Human serotonin 5-HT6 receptor (Homo sapiens, UniProt P50406); experiment: [3H]LSD binding assay on cloned 5-HT6 receptor; settings: IC50 (nM)
Chain of Human serotonin 5-HT6 receptor (P50406 whole entry): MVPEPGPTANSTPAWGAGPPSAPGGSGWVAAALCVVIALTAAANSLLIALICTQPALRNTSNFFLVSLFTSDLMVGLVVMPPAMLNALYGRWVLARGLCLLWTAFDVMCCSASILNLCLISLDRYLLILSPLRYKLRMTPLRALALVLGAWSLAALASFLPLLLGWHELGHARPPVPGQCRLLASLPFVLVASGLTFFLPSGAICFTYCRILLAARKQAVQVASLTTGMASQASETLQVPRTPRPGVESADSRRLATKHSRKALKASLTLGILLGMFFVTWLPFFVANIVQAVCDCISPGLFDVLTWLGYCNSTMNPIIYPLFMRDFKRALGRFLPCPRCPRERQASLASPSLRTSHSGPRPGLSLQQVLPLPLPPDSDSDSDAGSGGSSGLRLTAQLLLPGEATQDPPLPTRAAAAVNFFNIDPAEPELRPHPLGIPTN

5-HT2a = target: T2, 5-HT2a (Homo sapiens, UniProt P28223); experiment: Radioligand binding, 5-HT receptor family: 5-HT2a ([3H]Ketanserin); settings: CHO-K1 human recombinant receptor, [3H]Ketanserin 1 nM; read-out: Binding affinity, IC50 (nM), 5-HT2a
T2 construct: purchased Euroscreen/BioSignal Packard Inc
T2 sequence (P28223 whole entry): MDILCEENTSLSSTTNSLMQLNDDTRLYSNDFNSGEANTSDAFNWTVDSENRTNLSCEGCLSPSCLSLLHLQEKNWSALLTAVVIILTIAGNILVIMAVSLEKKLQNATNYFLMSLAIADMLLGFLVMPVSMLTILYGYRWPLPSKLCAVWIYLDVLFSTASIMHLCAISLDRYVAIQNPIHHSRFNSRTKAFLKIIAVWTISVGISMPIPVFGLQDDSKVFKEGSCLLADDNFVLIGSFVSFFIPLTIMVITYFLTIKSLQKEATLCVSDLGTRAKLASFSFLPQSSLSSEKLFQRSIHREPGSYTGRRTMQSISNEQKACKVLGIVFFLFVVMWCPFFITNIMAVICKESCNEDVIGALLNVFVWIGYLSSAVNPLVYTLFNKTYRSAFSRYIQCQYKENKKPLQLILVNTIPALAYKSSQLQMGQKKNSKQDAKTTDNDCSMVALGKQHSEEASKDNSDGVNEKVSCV

5-HT2c = target: T3, 5-HT2c (Homo sapiens, UniProt P28335); experiment: Radioligand binding, 5-HT receptor family: 5-HT2c ([3H]Mesulergine); settings: CHO-K1 human recombinant receptor, [3H]Mesulergine 1 nM; read-out: Binding affinity, IC50 (nM), 5-HT2c
T3 construct: purchased Euroscreen/BioSignal Packard Inc
T3 sequence (P28335 33-458): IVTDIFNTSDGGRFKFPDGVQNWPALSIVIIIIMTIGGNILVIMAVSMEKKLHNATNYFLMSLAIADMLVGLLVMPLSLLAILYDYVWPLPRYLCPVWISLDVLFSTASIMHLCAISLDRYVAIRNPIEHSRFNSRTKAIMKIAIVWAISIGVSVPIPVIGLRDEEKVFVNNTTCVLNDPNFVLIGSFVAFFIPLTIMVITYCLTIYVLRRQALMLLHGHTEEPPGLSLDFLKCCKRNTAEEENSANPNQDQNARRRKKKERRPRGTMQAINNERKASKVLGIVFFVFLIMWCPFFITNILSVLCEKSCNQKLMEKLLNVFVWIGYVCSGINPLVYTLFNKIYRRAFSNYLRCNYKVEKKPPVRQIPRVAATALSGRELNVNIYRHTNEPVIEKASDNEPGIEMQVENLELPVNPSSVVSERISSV

hD4.2 receptor = target: T4, hD4.2 receptor (Homo sapiens, UniProt P21917, DEL265-296); experiment: Dopamine receptor family binding: D4 ([3H]YM-09151-2); settings: [3H]YM-09151-2 0.06 nM; read-out: Binding affinity, IC50 (nM), D4
T4 construct: purchased BioSignal Packard Inc., Montreal, Canada
T4 sequence (P21917 with tags, fused parts or gaps DEL265-296): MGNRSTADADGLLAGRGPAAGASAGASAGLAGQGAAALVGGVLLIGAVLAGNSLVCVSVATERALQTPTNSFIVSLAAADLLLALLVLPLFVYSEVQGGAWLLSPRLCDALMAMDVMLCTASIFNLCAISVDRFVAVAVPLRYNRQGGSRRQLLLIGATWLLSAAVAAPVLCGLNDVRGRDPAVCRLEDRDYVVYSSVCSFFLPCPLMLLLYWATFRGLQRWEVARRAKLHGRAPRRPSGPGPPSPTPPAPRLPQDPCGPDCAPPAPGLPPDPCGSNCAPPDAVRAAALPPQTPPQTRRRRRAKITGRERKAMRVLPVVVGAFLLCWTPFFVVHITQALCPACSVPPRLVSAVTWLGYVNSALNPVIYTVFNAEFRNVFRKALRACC
Experimental: as §1, §2

5-HT7 = target: T5, 5-HT7 (Homo sapiens, UniProt P34969); experiment: Radioligand binding, 5-HT receptor family: 5-HT7 ([3H]LSD); settings: CHO-K1 human recombinant receptor, [3H]LSD 3 nM; read-out: Binding affinity, IC50 (nM), 5-HT7
T5 construct: purchased Euroscreen/BioSignal Packard Inc
T5 sequence (P34969 whole entry): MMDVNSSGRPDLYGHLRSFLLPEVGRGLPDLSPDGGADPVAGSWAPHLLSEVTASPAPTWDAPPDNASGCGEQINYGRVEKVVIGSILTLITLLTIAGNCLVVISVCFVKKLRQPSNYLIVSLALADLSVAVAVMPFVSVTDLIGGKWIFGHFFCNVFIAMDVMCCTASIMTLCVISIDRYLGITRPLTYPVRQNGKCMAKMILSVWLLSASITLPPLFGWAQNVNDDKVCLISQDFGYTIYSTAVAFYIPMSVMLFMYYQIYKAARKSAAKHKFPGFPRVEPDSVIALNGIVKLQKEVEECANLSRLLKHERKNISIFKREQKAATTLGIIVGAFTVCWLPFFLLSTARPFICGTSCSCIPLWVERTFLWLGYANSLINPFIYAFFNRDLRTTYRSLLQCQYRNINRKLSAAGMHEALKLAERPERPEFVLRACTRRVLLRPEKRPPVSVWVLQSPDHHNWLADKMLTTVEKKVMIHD
Experimental: Radioligand bindings were performed according to the test method provided by the supplier of receptor membrane (Euroscreen/BioSignal Packard Inc.). The detailed assay conditions and the results were shown in the following Table 3 and Table 4, respectively.

D1 = D1 (Homo sapiens, UniProt P21728); experiment: Dopamine receptor family binding: D1; settings: read-out: Binding affinity, IC50 (nM), D1
Chain of D1 (P21728 whole entry): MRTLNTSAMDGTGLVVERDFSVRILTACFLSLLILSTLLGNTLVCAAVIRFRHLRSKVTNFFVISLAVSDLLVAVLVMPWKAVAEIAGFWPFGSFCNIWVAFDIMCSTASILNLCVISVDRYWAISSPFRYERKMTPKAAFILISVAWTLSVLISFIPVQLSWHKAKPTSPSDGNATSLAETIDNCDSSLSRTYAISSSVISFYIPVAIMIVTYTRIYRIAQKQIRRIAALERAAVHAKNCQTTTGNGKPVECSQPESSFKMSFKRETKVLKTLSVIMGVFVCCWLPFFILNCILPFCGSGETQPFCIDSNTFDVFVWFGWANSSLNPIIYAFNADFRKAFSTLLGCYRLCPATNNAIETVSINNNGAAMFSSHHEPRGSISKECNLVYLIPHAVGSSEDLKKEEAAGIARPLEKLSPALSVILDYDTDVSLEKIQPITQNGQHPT

5-HT1a = target: T6, 5-HT1a (Homo sapiens, UniProt P08908); experiment: Radioligand binding, 5-HT receptor family: 5-HT1a ([3H]8-OH-DPAT); settings: CHO-K1 human recombinant receptor, [3H]8-OH-DPAT 0.5 nM; read-out: Binding affinity, IC50 (nM), 5-HT1a
T6 construct: purchased Euroscreen/BioSignal Packard Inc
T6 sequence (P08908 1-422): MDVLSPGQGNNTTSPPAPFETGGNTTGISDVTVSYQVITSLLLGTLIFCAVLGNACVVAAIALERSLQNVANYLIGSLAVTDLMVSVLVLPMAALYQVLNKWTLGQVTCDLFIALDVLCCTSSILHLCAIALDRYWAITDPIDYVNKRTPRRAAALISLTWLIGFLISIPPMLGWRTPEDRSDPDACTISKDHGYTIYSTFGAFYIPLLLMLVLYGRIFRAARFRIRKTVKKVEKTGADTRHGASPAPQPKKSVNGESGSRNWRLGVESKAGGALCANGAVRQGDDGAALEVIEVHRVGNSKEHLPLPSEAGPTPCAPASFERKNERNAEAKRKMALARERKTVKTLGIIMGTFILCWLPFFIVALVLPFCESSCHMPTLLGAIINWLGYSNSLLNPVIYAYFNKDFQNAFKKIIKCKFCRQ

hD3 receptor = target: T7, hD3 receptor (Homo sapiens, UniProt P35462); experiment: Dopamine receptor family binding: D3 ([3H]spiperone); settings: [3H]spiperone 1 nM; read-out: Binding affinity, IC50 (nM), D3
T7 construct: purchased BioSignal Packard Inc., Montreal, Canada
T7 sequence (P35462 whole entry): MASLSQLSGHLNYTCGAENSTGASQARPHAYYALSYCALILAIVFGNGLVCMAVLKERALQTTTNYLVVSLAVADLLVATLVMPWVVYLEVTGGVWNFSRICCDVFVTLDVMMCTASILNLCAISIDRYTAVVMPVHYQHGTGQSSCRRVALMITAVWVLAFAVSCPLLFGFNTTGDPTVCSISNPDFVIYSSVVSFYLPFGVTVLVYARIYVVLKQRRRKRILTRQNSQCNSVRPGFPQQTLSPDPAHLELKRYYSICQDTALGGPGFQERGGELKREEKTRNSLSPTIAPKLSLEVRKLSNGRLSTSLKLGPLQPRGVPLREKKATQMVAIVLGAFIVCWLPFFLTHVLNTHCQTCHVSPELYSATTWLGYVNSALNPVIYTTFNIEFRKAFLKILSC

[2] = Binding affinity, 5-HT6, Table 4
[3] = binding affinity to the 5-HT6 receptor, Table 2, 1.87 nM [3H]LSD, cloned human receptor membranes from Sf21 cells, 37° C. 60 min

| Compound | IC50 (hD2L receptor) [nM] | IC50 [1, 2] [nM] | IC50 [1, 3] [nM] | IC50 (5-HT2a) [nM] | melting point [°C] | IC50 (5-HT2c) [nM] | IC50 (hD4.2 receptor) [nM] | IC50 (5-HT7) [nM] | IC50 (D1) [nM] | IC50 (5-HT1a) [nM] | IC50 (hD3 receptor) [nM] |
| --- | --- | --- | --- | --- | --- | --- | --- | --- | --- | --- | --- |
| COc1cccc(CN2C(=O)N(Cc3ccccc3)c3cc(Cl)cc(N4CCN(C)CC4)c3S2(=O)=O)c1 [Example 17, 4-Benzyl-6-chloro-2-(3-methoxy-benzyl)-8-(4-methyl-piperazin-1-yl)-1,1-dioxo-1,4-dihydro-2H-1λ^6-benzo[1,2,4]thiadiazin-3-one] | 4860 | 10.9 | 10.6 | 318 | 85 to 86 | 899 | > 10000 | > 10000 | 4730 | 1950 | 537 |
| C[C@@H](c1ccccc1)N1C(=O)N(Cc2ccccc2)c2cc(Cl)cc(N3CCN(C)CC3)c2S1(=O)=O [Example 26, 4-Benzyl-6-chloro-8-(4-methyl-piperazin-1-yl)-1,1-dioxo-2-[(S)-1-phenyl-ethyl]-1,4-dihydro-2H-1λ^6-benzo[1,2,4]thiadiazin-3-one] | 6580 | 2.4 | 2.4 | 145 | – | 183 | > 10000 | 8250 | 1760 | 589 | 715 |
| CN1CCN(c2cc(Cl)cc3c2S(=O)(=O)N(c2ccccc2)C(=O)N3Cc2ccccc2)CC1 [Example 27, 4-Benzyl-6-chloro-8-(4-methyl-piperazin-1-yl)-1,1-dioxo-2-phenyl-1,4-dihydro-2H-1λ^6-benzo[1,2,4]thiadiazin-3-one] | > 10000 | 3.8 | 3.8 | 4310 | – | 2580 | > 10000 | > 10000 | 2690 | 2080 | 5950 |
| Cc1cc(C)cc(CCCN2C(=O)N(Cc3ccccc3)c3cc(Cl)cc(N4CCN(C)CC4)c3S2(=O)=O)c1 [Example 38, 4-Benzyl-6-chloro-2-[3-(3,5-dimethyl-phenyl)-propyl]-8-(4-methyl-piperazin-1-yl)-1,1-dioxo-1,4-dihydro-2H-1λ^6-benzo[1,2,4]thiadiazin-3-one] | > 10000 | 0.6 | 0.6 | 359 | – | 508 | > 10000 | 9140 | 918 | 3420 | 336 |
| COc1cccc(CN2C(=O)N(Cc3ccccc3)c3cc(Cl)cc(N4CCNCC4)c3S2(=O)=O)c1 [Example 52, 4-Benzyl-6-chloro-2-(3-methoxy-benzyl)-1,1-dioxo-8-piperazin-1-yl-1,4-dihydro-2H-1λ^6-benzo[1,2,4]thiadiazin-3-one] | 3220 | 2 | 5.8 | 1000 | 98 to 100 | 1350 | > 10000 | 6780 | 3140 | 1860 | 531 |
| COc1ccc(CN2C(=O)N(Cc3ccccc3)c3cc(Cl)cc(N4CCNCC4)c3S2(=O)=O)cc1 [Example 53, 4-Benzyl-6-chloro-2-(4-methoxy-benzyl)-1,1-dioxo-8-piperazin-1-yl-1,4-dihydro-2H-1λ^6-benzo[1,2,4]thiadiazin-3-one] | 2440 | 11.8 | 11.8 | 651 | – | 961 | > 10000 | 6580 | > 10000 | 3260 | 844 |
| O=C1N(Cc2ccccc2)c2cc(Cl)cc(N3CCNCC3)c2S(=O)(=O)N1Cc1cccc(O)c1 [Example 54, 4-Benzyl-6-chloro-2-(3-hydroxy-benzyl)-1,1-dioxo-8-piperazin-1-yl-1,4-dihydro-2H-1λ^6-benzo[1,2,4]thiadiazin-3-one] | 2280 | 5.8 | 1 | 1150 | 230 to 231 | 1800 | > 10000 | > 10000 | 4100 | 621 | 804 |
| C[C@H](c1ccccc1)N1C(=O)N(Cc2ccccc2)c2cc(Cl)cc(N3CCNCC3)c2S1(=O)=O [Example 58, 4-Benzyl-6-chloro-1,1-dioxo-2-[(R)-1-phenyl-ethyl]-8-piperazin-1-yl-1,4-dihydro-2H-1λ^6-benzo[1,2,4]thiadiazin-3-one] | 4500 | 2.3 | 2.3 | 549 | – | 424 | > 10000 | 6390 | 1780 | > 10000 | 398 |
| C[C@@H](c1ccccc1)N1C(=O)N(Cc2ccccc2)c2cc(Cl)cc(N3CCNCC3)c2S1(=O)=O [Example 59, 4-Benzyl-6-chloro-1,1-dioxo-2-[(S)-1-phenyl-ethyl]-8-piperazin-1-yl-1,4-dihydro-2H-1λ^6-benzo[1,2,4]thiadiazin-3-one] | 4640 | 3 | 3 | 272 | – | 508 | > 10000 | 2300 | 4100 | 1400 | 403 |
| COc1cccc(N2C(=O)N(Cc3ccccc3)c3cc(Cl)cc(N4CCNCC4)c3S2(=O)=O)c1 [Example 62, 4-Benzyl-6-chloro-2-(3-methoxy-phenyl)-1,1-dioxo-8-piperazin-1-yl-1,4-dihydro-2H-1λ^6-benzo[1,2,4]thiadiazin-3-one] | > 10000 | 10.2 | 10.2 | 3170 | – | 4960 | > 10000 | > 10000 | 5590 | 926 | 2370 |
